{"source": "patent US6143769A", "about": "“Phenylacetic acid benzylamides” (Karl Thomae GmbH, priority 1983, dated 2000)", "key": {"[1]": {"test": "Study 2: plasma concentration, HPLC", "assay_type": "in vivo, human", "conditions": "for concentration at 0.2 h: 0.20 h; for concentration at 0.5 h: 0.50 h; for concentration at 1.5 h: 1.50 h", "from_the_text": "Blood samples were taken at various times."}, "glucose": {"system": "glucose", "test": "Study 5: plasma glucose after 1 mg AG-EE 388 ZW i.v., oral solution or capsule", "assay_type": "in vivo, human", "from_the_text": "Blood samples were taken at different times."}, "[2]": {"conditions": "human, plasma, po, 2 mg, 2 mg capsule"}, "[3]": {"conditions": "human, plasma, po, 2 mg, 2 mg tablet"}}, "data": [{"smiles": "CCOc1cc(CC(=O)NC(CC(C)C)c2ccccc2N2CCCCC2)ccc1C(=O)O", "note": "(racemic) [AG-EE 388 ZW, 2-ethoxy-4-[N-[1-(2-piperidino-phenyl)-3-methyl-1-butyl]aminocarbonylmethyl]-benzoic acid]", "values": [{"measurement": "Concentration (mean)", "setting": "[1]; 2 mg capsule, 4.00 h, listed as 388, 240 min", "result": "17 ± 5", "unit": "ng/mL"}, {"measurement": "Concentration (mean)", "setting": "[1]; 2 mg capsule, 5.00 h, listed as 388, 300 min", "result": "12 ± 3", "unit": "ng/mL"}, {"measurement": "Concentration (mean)", "setting": "[1]; 2 mg capsule, 6.00 h, listed as 388, 360 min", "result": "8 ± 4", "unit": "ng/mL"}, {"measurement": "Concentration (mean)", "setting": "[1]; 2 mg capsule, 24.00 h", "result": 0.0, "unit": "ng/mL"}, {"measurement": "Rise and peak of plasma level, tablet versus capsule", "setting": "[1]; 2 mg p.o.", "result": "rises rather more rapidly after administration of the tablet and reaches its peak somewhat earlier"}, {"measurement": "Time at which level reaches / falls below the detection limit", "setting": "[1]; 2 mg p.o.", "result": "≥ 6", "unit": "h"}, {"measurement": "Time at which level reaches / falls below the detection limit", "setting": "[1]; 2 mg p.o., listed as AG-EE 398 ZW", "result": "about 6 hours"}, {"measurement": "Maximum concentration", "setting": "[1]; 2 mg tablet p.o.", "result": "83.5 ± 25.5", "unit": "ng/mL"}, {"measurement": "Concentration (mean)", "setting": "[1]; 2 mg tablet, 0 h", "result": 0.0, "unit": "ng/mL"}, {"measurement": "Concentration (mean)", "setting": "[1]; 2 mg tablet, 4.00 h, 240 min", "result": 19.1, "unit": "ng/mL"}, {"measurement": "Concentration (mean)", "setting": "[1]; 2 mg tablet, 24.00 h", "result": 0.0, "unit": "ng/mL"}, {"measurement": "concentration at 0.2 h", "setting": "[1]; [2]", "result": 0.9, "unit": "ng/mL"}, {"measurement": "concentration at 0.33 h", "setting": "[1]; [2]", "result": 17.5, "unit": "ng/mL"}, {"measurement": "concentration at 0.5 h", "setting": "[1]; [2]", "result": 44.9, "unit": "ng/mL"}, {"measurement": "concentration at 0.75 h", "setting": "[1]; [2]", "result": 66.4, "unit": "ng/mL"}, {"measurement": "concentration at 1 h", "setting": "[1]; [2]", "result": 73.7, "unit": "ng/mL"}, {"measurement": "concentration at 1.5 h", "setting": "[1]; [2]", "result": 65.1, "unit": "ng/mL"}, {"measurement": "concentration at 2 h", "setting": "[1]; [2]", "result": 50.8, "unit": "ng/mL"}, {"measurement": "concentration at 3 h", "setting": "[1]; [2]", "result": 27.9, "unit": "ng/mL"}, {"measurement": "concentration at 4 h", "setting": "[1]; human, plasma, po, 2 mg, 2 mg capsule, 4.00 h", "result": 16.8, "unit": "ng/mL"}, {"measurement": "concentration at 5 h", "setting": "[1]; human, plasma, po, 2 mg, 2 mg capsule, 5.00 h", "result": 12.2, "unit": "ng/mL"}, {"measurement": "concentration at 6 h", "setting": "[1]; human, plasma, po, 2 mg, 2 mg capsule, 6.00 h", "result": 7.8, "unit": "ng/mL"}, {"measurement": "concentration at 9 h", "setting": "[1]; [2]", "result": 3.3, "unit": "ng/mL"}, {"measurement": "concentration at 0.2 h", "setting": "[1]; [3]", "result": 15, "unit": "ng/mL"}, {"measurement": "concentration at 0.33 h", "setting": "[1]; [3]", "result": 55.6, "unit": "ng/mL"}, {"measurement": "concentration at 0.5 h", "setting": "[1]; [3]", "result": 75.6, "unit": "ng/mL"}, {"measurement": "concentration at 0.75 h", "setting": "[1]; [3]", "result": 83.5, "unit": "ng/mL"}, {"measurement": "concentration at 1 h", "setting": "[1]; [3]", "result": 81.3, "unit": "ng/mL"}, {"measurement": "concentration at 1.5 h", "setting": "[1]; [3]", "result": 65.9, "unit": "ng/mL"}, {"measurement": "concentration at 2 h", "setting": "[1]; [3]", "result": 51.3, "unit": "ng/mL"}, {"measurement": "concentration at 3 h", "setting": "[1]; [3]", "result": 32.4, "unit": "ng/mL"}, {"measurement": "concentration at 5 h", "setting": "[1]; human, plasma, po, 2 mg, 2 mg tablet, 5.00 h", "result": 13.2, "unit": "ng/mL"}, {"measurement": "concentration at 6 h", "setting": "[1]; human, plasma, po, 2 mg, 2 mg tablet, 6.00 h", "result": 9.5, "unit": "ng/mL"}, {"measurement": "concentration at 9 h", "setting": "[1]; [3]", "result": 5.2, "unit": "ng/mL"}, {"measurement": "Cmax", "setting": "[1]; human, plasma, po, 2 mg capsule p.o., read-out: Maximum concentration", "result": "74 ± 15", "unit": "ng/mL"}, {"measurement": "Glucose (mean)", "setting": "glucose; 1 mg i.v., 0.00 h", "result": 6.10, "unit": "mmol/L"}, {"measurement": "Glucose (mean)", "setting": "glucose; 1 mg p.o. capsule, 0.00 h", "result": 5.32, "unit": "mmol/L"}, {"measurement": "Glucose (mean)", "setting": "glucose; 1 mg p.o. solution, 0.00 h", "result": 5.85, "unit": "mmol/L"}, {"measurement": "Glucose (mean)", "setting": "glucose; i.v., 0.08 h", "result": 6.54, "unit": "mmol/L"}, {"measurement": "Glucose (mean)", "setting": "glucose; i.v., 0.17 h", "result": 6.46, "unit": "mmol/L"}, {"measurement": "Glucose (mean)", "setting": "glucose; i.v., 0.25 h", "result": 6.46, "unit": "mmol/L"}, {"measurement": "Glucose (mean)", "setting": "glucose; i.v., 0.28 h", "result": 6.46, "unit": "mmol/L"}, {"measurement": "Glucose (mean)", "setting": "glucose; i.v., 0.33 h", "result": 6.40, "unit": "mmol/L"}, {"measurement": "Glucose (mean)", "setting": "glucose; i.v., 0.42 h", "result": 6.01, "unit": "mmol/L"}, {"measurement": "Glucose (mean)", "setting": "glucose; i.v., 0.50 h", "result": 5.86, "unit": "mmol/L"}, {"measurement": "Glucose (mean)", "setting": "glucose; i.v., 0.75 h", "result": 5.14, "unit": "mmol/L"}, {"measurement": "Glucose (mean)", "setting": "glucose; i.v., 1.00 h", "result": 4.57, "unit": "mmol/L"}, {"measurement": "Glucose (mean)", "setting": "glucose; i.v., 1.50 h", "result": 4.55, "unit": "mmol/L"}, {"measurement": "Glucose (mean)", "setting": "glucose; i.v., 2.00 h (breakfast)", "result": 5.11, "unit": "mmol/L"}, {"measurement": "Glucose (mean)", "setting": "glucose; i.v., 2.50 h", "result": 7.14, "unit": "mmol/L"}, {"measurement": "Glucose (mean)", "setting": "glucose; i.v., 3.00 h", "result": 6.31, "unit": "mmol/L"}, {"measurement": "Glucose (mean)", "setting": "glucose; i.v., 4.00 h", "result": 5.58, "unit": "mmol/L"}, {"measurement": "Glucose (mean)", "setting": "glucose; i.v., 5.00 h (lunch)", "result": 5.48, "unit": "mmol/L"}, {"measurement": "Glucose (mean)", "setting": "glucose; i.v., 6.00 h", "result": 6.53, "unit": "mmol/L"}, {"measurement": "Glucose (mean)", "setting": "glucose; i.v., 9.00 h", "result": 6.49, "unit": "mmol/L"}, {"measurement": "Glucose (mean)", "setting": "glucose; i.v., 24.00 h", "result": 6.24, "unit": "mmol/L"}, {"measurement": "Glucose (mean)", "setting": "glucose; p.o. capsule, 0.25 h", "result": 6.08, "unit": "mmol/L"}, {"measurement": "Glucose (mean)", "setting": "glucose; p.o. capsule, 0.50 h", "result": 5.87, "unit": "mmol/L"}, {"measurement": "Glucose (mean)", "setting": "glucose; p.o. capsule, 0.75 h", "result": 5.85, "unit": "mmol/L"}, {"measurement": "Glucose (mean)", "setting": "glucose; p.o. capsule, 1.00 h", "result": 5.57, "unit": "mmol/L"}, {"measurement": "Glucose (mean)", "setting": "glucose; p.o. capsule, 1.50 h", "result": 5.24, "unit": "mmol/L"}, {"measurement": "Glucose (mean)", "setting": "glucose; p.o. capsule, 2.00 h (breakfast)", "result": 5.04, "unit": "mmol/L"}, {"measurement": "Glucose (mean)", "setting": "glucose; p.o. capsule, 3.00 h", "result": 5.04, "unit": "mmol/L"}, {"measurement": "Glucose (mean)", "setting": "glucose; p.o. capsule, 4.00 h", "result": 4.43, "unit": "mmol/L"}, {"measurement": "Glucose (mean)", "setting": "glucose; p.o. capsule, 5.00 h (lunch)", "result": 4.71, "unit": "mmol/L"}, {"measurement": "Glucose (mean)", "setting": "glucose; p.o. capsule, 6.00 h", "result": 5.41, "unit": "mmol/L"}, {"measurement": "Glucose (mean)", "setting": "glucose; p.o. capsule, 9.00 h", "result": 5.42, "unit": "mmol/L"}, {"measurement": "Glucose (mean)", "setting": "glucose; p.o. capsule, 24.00 h", "result": 5.44, "unit": "mmol/L"}, {"measurement": "Glucose (mean)", "setting": "glucose; p.o. solution, 0.25 h", "result": 6.13, "unit": "mmol/L"}, {"measurement": "Glucose (mean)", "setting": "glucose; p.o. solution, 0.50 h", "result": 5.99, "unit": "mmol/L"}, {"measurement": "Glucose (mean)", "setting": "glucose; p.o. solution, 0.75 h", "result": 5.83, "unit": "mmol/L"}, {"measurement": "Glucose (mean)", "setting": "glucose; p.o. solution, 1.00 h", "result": 5.77, "unit": "mmol/L"}, {"measurement": "Glucose (mean)", "setting": "glucose; p.o. solution, 1.50 h", "result": 5.40, "unit": "mmol/L"}, {"measurement": "Glucose (mean)", "setting": "glucose; p.o. solution, 2.00 h (breakfast)", "result": 5.11, "unit": "mmol/L"}, {"measurement": "Glucose (mean)", "setting": "glucose; p.o. solution, 3.00 h", "result": 5.40, "unit": "mmol/L"}, {"measurement": "Glucose (mean)", "setting": "glucose; p.o. solution, 4.00 h", "result": 4.86, "unit": "mmol/L"}, {"measurement": "Glucose (mean)", "setting": "glucose; p.o. solution, 5.00 h (lunch)", "result": 5.12, "unit": "mmol/L"}, {"measurement": "Glucose (mean)", "setting": "glucose; p.o. solution, 6.00 h", "result": 5.60, "unit": "mmol/L"}, {"measurement": "Glucose (mean)", "setting": "glucose; p.o. solution, 9.00 h", "result": 5.68, "unit": "mmol/L"}, {"measurement": "Glucose (mean)", "setting": "glucose; p.o. solution, 24.00 h", "result": 5.60, "unit": "mmol/L"}]}]}
